Data on 13 compounds can be found in PubChem BioAssay (NCI).

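Five concentrations, 48 hours, 96-well plates. TGI marks complete inhibition of growth.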

Among the test systems are 786-0 renal; K-562 leukemia; NCI-H226 lung; OVCAR-4 ovarian; OVCAR-5 ovarian; SW-620 colon; T-47D breast; TK-10 renal; U251 CNS; UACC-257 melanoma; SK-OV-3 ovarian; SR leukemia; A498 renal.
Assay in all cases: NCI-60 cell line screen, 48 h

On to `CC1(O)/C(=N/O)CC2CC1C2(C)C` (stereo not given), for which the TGI with 786-0 renal, in the assay with K-562 leukemia, in the assay with NCI-H226 lung, in the assay on OVCAR-4 ovarian, in the assay with OVCAR-5 ovarian and in the assay with SW-620 colon was > 100 µM each time. The TGI with T-47D breast, with TK-10 renal, with U251 CNS and with UACC-257 melanoma was > 100 µM in each case.
Consider `COC(=O)N/N=C/c1oc(-c2cccc([N+](=O)[O-])c2)c(-c2cccc([N+](=O)[O-])c2)c1[N+](=O)[O-]`, for which the TGI in the assay on 786-0 renal, in the assay with K-562 leukemia, in the assay with OVCAR-4 ovarian, in the assay on OVCAR-5 ovarian, with SK-OV-3 ovarian and with SR leukemia was > 100 µM in each case. The TGI with SW-620 colon, in the assay with TK-10 renal, in the assay with U251 CNS and with UACC-257 melanoma was > 100 µM throughout.
Consider `COC(=O)c1c(C(=O)OC)c2cc(C(=O)c3ccccc3)ccn2c1Cl`, for which the TGI in the assay with 786-0 renal was > 100 µM; in the assay on K-562 leukemia, > 100 µM; in the assay with NCI-H226 lung, 64.7 µM; in the assay on OVCAR-4 ovarian it was > 100 µM; in the assay on OVCAR-5 ovarian, > 100 µM; in the assay with SR leukemia, 40.5 µM. Also, the TGI in the assay with SW-620 colon, in the assay on TK-10 renal and in the assay on U251 CNS was > 100 µM throughout.
With `COC1OC(CO)C(O)C(OC(=O)c2cc(O)c(O)c(O)c2)C1OC(=O)c1cc(O)c(O)c(O)c1` (stereo not given), the TGI was > 100 µM in the assay with 786-0 renal; > 100 µM in the assay on K-562 leukemia; > 100 µM with NCI-H226 lung; 90.4 µM in the assay with OVCAR-4 ovarian; > 100 µM in the assay on OVCAR-5 ovarian; > 100 µM in the assay on SK-OV-3 ovarian. Moreover, the TGI in the assay on SR leukemia, in the assay with SW-620 colon, in the assay on TK-10 renal, in the assay on U251 CNS and in the assay on UACC-257 melanoma was > 100 µM each time.
Take `COc1ccc(C2C(Cl)C(=O)N2NC(=O)Cc2ccccc2)cc1` (stereo not given): the TGI with 786-0 renal, with K-562 leukemia, in the assay on NCI-H226 lung, with OVCAR-4 ovarian, with OVCAR-5 ovarian and in the assay with SK-OV-3 ovarian was > 100 µM throughout. The TGI in the assay on SR leukemia, in the assay on SW-620 colon, with TK-10 renal, with U251 CNS and with UACC-257 melanoma was > 100 µM throughout.
For `O=C1CCCC2=C1CC1=C(CCCC1=O)N2c1cccc2ccccc12`, the TGI with 786-0 renal, in the assay with A498 renal, in the assay on K-562 leukemia, with NCI-H226 lung, in the assay with OVCAR-4 ovarian and in the assay on OVCAR-5 ovarian was > 100 µM each time. For the same compound, the TGI in the assay on SK-OV-3 ovarian, in the assay with SR leukemia, in the assay on SW-620 colon, in the assay with TK-10 renal and in the assay with U251 CNS was > 100 µM throughout.
In the case of `[N-]=[N+]=NC1C(Br)C(=O)NC(=O)N1[C@H]1C[C@H](O)[C@@H](CO)O1` (stereo not given in full), the TGI in the assay with 786-0 renal, in the assay on A498 renal, in the assay on K-562 leukemia, with OVCAR-4 ovarian, in the assay on OVCAR-5 ovarian and in the assay on SK-OV-3 ovarian was > 100 µM each time. Further, the TGI in the assay with SW-620 colon, in the assay on TK-10 renal, in the assay with U251 CNS and with UACC-257 melanoma was > 100 µM throughout.
Regarding `CNC(=O)CCNC(=O)CCC(=O)OC`, the TGI in the assay on 786-0 renal, in the assay with A498 renal, in the assay with K-562 leukemia, with OVCAR-4 ovarian, in the assay on OVCAR-5 ovarian and in the assay with SK-OV-3 ovarian was > 100 µM in each case. For the same compound, the TGI in the assay on SW-620 colon, with T-47D breast, in the assay with TK-10 renal and in the assay on U251 CNS was > 100 µM each time.
For `CC(C)CCC[C@@H](C)C1CCC2[C@@H]3CCC4CC(CCC=C(c5cc(Cl)c(OC(=O)c6ccccc6)c(C(=O)O)c5)c5cc(Cl)c(OC(=O)c6ccccc6)c(C(=O)O)c5)CC[C@]4(C)C3CC[C@@]21C` (stereo not given in full), the TGI was 75.2 µM in the assay on 786-0 renal; > 100 µM in the assay on A498 renal; > 100 µM in the assay on K-562 leukemia; > 100 µM with NCI-H226 lung; > 100 µM in the assay on OVCAR-4 ovarian; > 100 µM in the assay on OVCAR-5 ovarian. Moreover, the TGI in the assay on SK-OV-3 ovarian, with SW-620 colon, in the assay with TK-10 renal, with U251 CNS and in the assay on UACC-257 melanoma was > 100 µM each time.
Consider `CCCNC(=S)/N=C\c1c(O)c2ccccc2oc1=O`, for which the TGI with 786-0 renal, in the assay with A498 renal, with NCI-H226 lung, with OVCAR-4 ovarian, in the assay on OVCAR-5 ovarian and in the assay with SK-OV-3 ovarian was > 100 µM in each case. The TGI with SR leukemia, in the assay with SW-620 colon, with TK-10 renal, in the assay on U251 CNS and in the assay on UACC-257 melanoma was > 100 µM in each case.
For `O=C1CCC2SC1CCC2=O`, the TGI in the assay with 786-0 renal, in the assay on A498 renal, with K-562 leukemia, with NCI-H226 lung, in the assay with OVCAR-4 ovarian and with OVCAR-5 ovarian was > 100 µM throughout. Further, the TGI in the assay on SK-OV-3 ovarian, with SW-620 colon, in the assay on TK-10 renal, in the assay on U251 CNS and in the assay on UACC-257 melanoma was > 100 µM throughout.
With `COC[n+]1cc2cc(OC)c(OC)cc2c2ccc3cc(OC)c(OC)cc3c21`, the TGI with 786-0 renal, with K-562 leukemia, in the assay with NCI-H226 lung, in the assay on OVCAR-4 ovarian, in the assay on OVCAR-5 ovarian and in the assay with SW-620 colon was > 100 µM in each case. For the same compound, the TGI in the assay with TK-10 renal, in the assay with U251 CNS and with UACC-257 melanoma was > 100 µM each time.
For `CC1[C@@H](OCc2ccccc2)COC(=O)N1Cc1ccccc1` (stereo not given in full), the TGI in the assay on 786-0 renal, in the assay with K-562 leukemia, in the assay with NCI-H226 lung, with OVCAR-4 ovarian, in the assay on OVCAR-5 ovarian and with SK-OV-3 ovarian was > 100 µM each time. The TGI in the assay on SR leukemia, in the assay with SW-620 colon, in the assay on TK-10 renal, with U251 CNS and with UACC-257 melanoma was > 100 µM in each case.
